Like-named read-outs stand apart in the source and are kept apart here.
Legend:
MDR1 (P-gp) = MDR1 (P-gp) (Homo sapiens (Human), UniProt P08183); test: Assay E: MDCK assay MDR-1 (P-gp); type: in vitro ADME; conditions: for efflux ratio at 2 h, 10 μM: human, final test concentration 10 μM
Method: The MDCK assays provide information on the potential of a compound to pass the blood brain barrier. Permeability measurements across polarized, confluent MDCK-MDR1 cell monolayers grown on permeable filter supports are used as an in vitro absorption model: apparent permeability coefficients (PE) of the compounds across the MDCK-MDR1 cell monolayers are measured (pH 7.4, 37° C.) in apical-to-basal (AB) and basal-to-apical (BA) transport direction. The AB permeability (PEAB) represents drug absorption from the blood into the brain and the BA permeability (PEBA) drug efflux from the brain back into the blood via both, passive permeability as well as active transport mechanisms mediated by efflux and uptake transporters that are expressed on the MDCK-MDR1 cells, predominantly by the overexpressed human MDR1. Identical or similar permeabilities in both transport directions indicate passive permeation, vectorial permeability points to additional active transport mechanisms. Higher PEBA than PEAB (PEBA/PEAB >3) indicates the involvement of active efflux mediated by MDR1, which might compromise the goal to achieve sufficient brain exposure.
Assay E. MDCK assay MDR-1 (P-gp)
Apparent permeability coefficients (Papp) of the compounds across MDCK-MDR1 monolayers (MDCKII cells transfected with human MDR1 gene) are measured in apical-to-basal (AB) and basal-to-apical (BA) direction.
MDCK-MDR1 cells (6×10^5 cells/cm^2) are seeded onto filter inserts (Corning, Transwell, polycarbonate, 0.4 μm pore size) and cultured for 9 to 10 days. Compounds dissolved in DMSO stock solution (1-20 mM) are diluted with HTP-4 buffer (128.13 mM NaCl, 5.36 mM KCl, 1 mM MgSO4, 1.8 mM CaCl2, 4.17 mM NaHCO3, 1.19 mM Na2HPO4, 0.41 mM NaH2PO4, 15 mM HEPES, 20 mM glucose, pH 7.4) supplemented with 0.25% BSA to prepare the transport solutions, resulting in a final test concentration of 1 μM or 10 μM and a final DMSO content of 0.5%. The transport solution is applied to the apical or basolateral donor side for measuring A-B or B-A permeability, respectively. The receiver side contains HTP-4 buffer supplemented with 0.25% BSA. Samples are collected at the start and end of experiment from the donor and at various time intervals for up to 2 hours from the receiver side for concentration measurement by HPLC-MS/MS. Sampled receiver volumes are replaced with fresh receiver solution.
All data reported for Assay E were measured with a final test concentration of 10 μM.

human Factor Xa = human Factor Xa (Homo sapiens (Human), UniProt P00742); test: Assay C: human Factor Xa chromogenic substrate assay; type: biochemical; conditions: for IC50: human Factor Xa 0.86 nM, chromogenic substrate S2765; for Selectivity Assay C/Assay A: ratio IC50 Factor Xa / IC50 IDO1
Chain of human Factor Xa (P00742 235-488): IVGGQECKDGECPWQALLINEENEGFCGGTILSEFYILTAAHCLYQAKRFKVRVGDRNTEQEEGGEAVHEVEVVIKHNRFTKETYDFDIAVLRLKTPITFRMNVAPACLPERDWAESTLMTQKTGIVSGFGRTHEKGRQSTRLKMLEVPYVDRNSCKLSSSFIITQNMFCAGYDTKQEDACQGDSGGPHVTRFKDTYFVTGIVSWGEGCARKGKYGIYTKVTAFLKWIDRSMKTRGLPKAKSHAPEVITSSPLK
Chain of human Factor Xa (P00742 41-179 partner): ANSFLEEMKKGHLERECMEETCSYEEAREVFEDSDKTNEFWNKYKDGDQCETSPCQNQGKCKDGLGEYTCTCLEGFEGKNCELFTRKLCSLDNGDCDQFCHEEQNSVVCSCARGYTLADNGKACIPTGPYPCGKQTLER
Method: Assay C. In Vitro Testing of Human Factor Xa Potency:
Measurement of active human Factor Xa using a specific chromogenic substrate which is labeled with a p-nitro-anilino group (pNA). The cleavage in between the binding of the peptide substrate and the pNA-group is followed by a color change, which can be detected at 405 nm. The amount of cleaved substrate is directly proportional to the amount of active Xa.
[…] (100 U) human Factor Xa (Enzyme Research Laboratories; HFXa1011) were solved in 0.444 ml H2O (Millipore), which accords to a stock solution of 19.28 μM or 225 U/ml. Further dilutions were made in the assay buffer (Tris 100 mM, NaCL 150 mM, adjusted to a pH of 7.8 with HCL, containing 0.1% BSA and 0.05% Tween20). 25 mg (1 vial) of the chromogenic substrate S2765 (Chromogenix; S2765) was solved in 3.5 ml H2O (Millipore) to achieve a stock solution of 10 mM.
Compounds were solved and diluted in DMSO where the final dilution in the assay is 1:10 resulting in a final concentration of 1% DMSO.
• the prefinal dilution step was 1:10 in the assay buffer containing 11% DMSO resulting in 10% DMSO • final dilution in the assay is 1:10 resulting in a final concentration of 1% DMSO
Compounds were tested at final concentrations of 10 μM to 0.003 nM or lower. 5 μl human factor Xa (final concentration 0.86 nM), 2 μl compound dilution or assay buffer (containing 10% DMSO) and 8 μl assay buffer were pipetted in triplicates into a 384-well plate and incubated in the Thermomix at 24° C. for 10 minutes.
After addition of 5 μl chromogenic substrate (final concentration 0.5 mM) the enzyme-substrate reaction started and the kinetic measurement with the SpectraMax Monochromator was started within 1-2 minutes. • Parameter of measurement: (Spectra ax, Monochromator) • Absorbance; 1.LM 405 nM • Kinetic: 16 min each 2nd minute (9 times) • Negative Control (NC) 5 μl human factor Xa+10 μl assay buffer+5 μl Substrate • Positive Control (PC): 5 μl human factor Xa+2 μl Nafamostat (commercially available, final concentration: 1 μM)+8 μl assay buffer+5 μl Substrate • Blank (optional): 15 μl assay buffer+5 μl Substrate
Calculation of IC50, KI and the % effect at the highest concentration (Ratio)
For the calculation the average of the Vmax-values in between 120 sec to 720 sec were taken.
A x/y-Plot was created: x=log (M, Compound); y=vmax (drfu/min)
The data were analyzed with the curve fitting model: log (inhibitor) vs. response—Variable slope (four parameters)
The results of this fit were Top, Bottom, Log (IC50, M), Hillslope and IC50 (M)

human androgen receptor = human androgen receptor (Homo sapiens (Human), UniProt P10275); test: Assay B: human androgen receptor luciferase reporter assay (Indigo Biosciences); type: cell-based
Chain of human androgen receptor (P10275 whole entry): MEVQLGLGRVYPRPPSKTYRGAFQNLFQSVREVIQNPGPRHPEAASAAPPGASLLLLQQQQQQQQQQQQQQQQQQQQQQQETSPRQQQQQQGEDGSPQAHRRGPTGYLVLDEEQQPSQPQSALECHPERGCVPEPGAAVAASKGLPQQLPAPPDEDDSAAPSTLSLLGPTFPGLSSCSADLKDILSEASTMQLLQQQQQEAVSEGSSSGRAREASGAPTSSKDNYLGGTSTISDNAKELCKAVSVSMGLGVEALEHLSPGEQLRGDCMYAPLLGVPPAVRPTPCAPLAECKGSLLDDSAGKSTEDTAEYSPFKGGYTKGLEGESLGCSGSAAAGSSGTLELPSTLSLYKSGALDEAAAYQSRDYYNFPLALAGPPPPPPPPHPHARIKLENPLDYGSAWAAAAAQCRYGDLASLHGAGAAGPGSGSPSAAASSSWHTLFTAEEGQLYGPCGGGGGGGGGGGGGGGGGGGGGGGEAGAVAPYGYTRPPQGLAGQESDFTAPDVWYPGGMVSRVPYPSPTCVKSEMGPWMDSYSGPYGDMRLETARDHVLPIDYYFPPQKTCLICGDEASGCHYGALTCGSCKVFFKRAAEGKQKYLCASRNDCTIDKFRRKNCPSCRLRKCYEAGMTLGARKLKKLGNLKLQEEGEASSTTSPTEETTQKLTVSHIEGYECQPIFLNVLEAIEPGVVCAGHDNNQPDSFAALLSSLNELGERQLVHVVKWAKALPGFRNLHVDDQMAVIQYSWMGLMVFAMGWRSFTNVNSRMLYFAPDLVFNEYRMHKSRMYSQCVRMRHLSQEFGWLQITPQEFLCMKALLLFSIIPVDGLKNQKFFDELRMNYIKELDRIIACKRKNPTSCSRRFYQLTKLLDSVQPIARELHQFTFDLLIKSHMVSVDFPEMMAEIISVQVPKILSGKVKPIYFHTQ
Description: Assay B. In Vitro Testing of Androgen Receptor Potency:
The human androgen receptor (AR) assay was run using Product #IB03001 from Indigo Biosciences. The cell line provided in this kit carries a reporter gene, induced upon AR stimulation. This reporter gene is cDNA encoding for beetle luciferase, a 62 kD protein originating from the North American firefly (Photinus pyralis). This luciferase catalyzes the mono-oxidation of D-luciferin yielding oxyluciferin, adenosine monophosphate, pyrophosphate, CO2, and photon emission. The luminescence intensity of the reaction is quantified using a luminometer.
To run the assay, the cells are thawed by adding pre-warmed cell recovery medium to each tube, then placed in a 37° C. water bath. 30000 viable cells in 200 μl are plated (collagen coated plates) and incubated at 37° C., ≥85% humidity, 5% CO2 for 24 hours. Media is replaced with compound screening medium. Cells are then challenged with 125 pM (EC80) 6a-Fl Testosterone and compounds are applied in half logarithmic dilutions from 10 μM to 10 nM. Assay plates are then incubated at 37° C., ≥85% humidity, 5% CO2 for 22-24 hours. Media is replaced with luciferase detection reagent and allowed 5 minutes to equilibrate prior to luminescence quantification.
Data Analysis consisted of calculating percentage of control between 100% (Negative control:6a-Fl Testosterone) and 0 (positive control: no 6a-FL Testosterone). Fitting of normalized values was made 4-Parameter sigmoidal binding curve (Log[conc]) vs. signal.

[1] = Assay F: tissue distribution in rat after oral application; type: in vivo; conditions: for in vivo efflux (in words): after oral application; for in vivo efflux (Assay F): oral 10 μmol/kg, muscle/brain tissue distribution
Description: In order to estimate the amount of administered drug to enter the brain, the brain to plasma ratio is used as surrogate parameter. As efflux transporters (e.g. P-gp) are located at the blood-brain barrier, compounds acting as substrates will be actively transported out of the brain. As these efflux transporters are not expressed in muscle tissue, the relative distribution ratio of compound between muscle and brain tissue can be used as indication for an efflux in vivo in rats or mice. In case there is no in vivo efflux detectable (in rats/mice) and in case there is no efflux in vitro (MDCK-MDR1 (P-gp)), a brain exposure in patients can be expected [see Table 7 for comparison of in vitro efflux data (MDCK-MDR1 assay) and in vivo efflux data (tissue distribution in rat/mouse after oral application)].
Assay F. Determination of Tissue Distribution in Rat/Mouse After Oral Application of Compounds
Male Han Wistar rats or C57BL/6NRj mice were orally dosed with 10 μmol/kg of compound to be investigated, suspended in 0.5% Natrosol/0.015% Tween80. Blood was collected in K3EDTA containing vials from the sublingual vein in short time Isoflurane anesthesia in rat or from the saphenous vein in conscious mice at […], 0.25, 0.5, 1, 2, 3, 4, 8 and 24 hours post administration. Subsequently, plasma was prepared by centrifugation for 5 min at 5000 rpm and stored at −20° C.
Tissues and CSF were sampled in anaesthetized animals. CSF was collected from the cisterna magna. Following exsanguination a femoral muscle sample was collected. Cranium and the dura matter were removed and the complete brain was collected. Before transfer of the muscle and brain sample to pre-weight homogenization devices (Precellys®) the tissues were rinsed with saline and blotted dry.
For homogenization, four parts (v/w) homogenization buffer (37.5% acetonitrile, 37.5% methanol, 25% water) were added. Tissues were homogenized with a Precellys® Evolution homogenizer. Five μL of the homogenate were added to 70 μL of a 1 to 1 (v/v) mixture of acetonitrile and methanol and frozen for at least 10 min at −18° C.
For final sample preparation, the sample was centrifuged at 4000 rpm for 1 min, and an aliquot of the resulting supernatant (30 μL) was mixed with 170 μL formic acid prior to injection to LC-MS. Calibration curves were prepared accordingly in rat and mouse plasma, respectively. All animal care and experimental procedures at Boehringer Ingelheim were conducted in compliance with the German and European Animal Welfare Act (EU Directive 2010/63/EU) and were approved by the Regierungspräsidium Tübingen as the responsible local German authority (reference number 35/9185.81-8/14-009-G).

[2] = pH 7.4, MDCK-MDR1 monolayers, mean +− standard deviation, read-out: Efflux ratio Assay E
[3] = MDCK-MDR1, pH 7.4, Table 7, read-out: MDCK-MDR1 efflux ratio (Assay E)

Chain of MDR1 (P-gp) (P08183 whole entry): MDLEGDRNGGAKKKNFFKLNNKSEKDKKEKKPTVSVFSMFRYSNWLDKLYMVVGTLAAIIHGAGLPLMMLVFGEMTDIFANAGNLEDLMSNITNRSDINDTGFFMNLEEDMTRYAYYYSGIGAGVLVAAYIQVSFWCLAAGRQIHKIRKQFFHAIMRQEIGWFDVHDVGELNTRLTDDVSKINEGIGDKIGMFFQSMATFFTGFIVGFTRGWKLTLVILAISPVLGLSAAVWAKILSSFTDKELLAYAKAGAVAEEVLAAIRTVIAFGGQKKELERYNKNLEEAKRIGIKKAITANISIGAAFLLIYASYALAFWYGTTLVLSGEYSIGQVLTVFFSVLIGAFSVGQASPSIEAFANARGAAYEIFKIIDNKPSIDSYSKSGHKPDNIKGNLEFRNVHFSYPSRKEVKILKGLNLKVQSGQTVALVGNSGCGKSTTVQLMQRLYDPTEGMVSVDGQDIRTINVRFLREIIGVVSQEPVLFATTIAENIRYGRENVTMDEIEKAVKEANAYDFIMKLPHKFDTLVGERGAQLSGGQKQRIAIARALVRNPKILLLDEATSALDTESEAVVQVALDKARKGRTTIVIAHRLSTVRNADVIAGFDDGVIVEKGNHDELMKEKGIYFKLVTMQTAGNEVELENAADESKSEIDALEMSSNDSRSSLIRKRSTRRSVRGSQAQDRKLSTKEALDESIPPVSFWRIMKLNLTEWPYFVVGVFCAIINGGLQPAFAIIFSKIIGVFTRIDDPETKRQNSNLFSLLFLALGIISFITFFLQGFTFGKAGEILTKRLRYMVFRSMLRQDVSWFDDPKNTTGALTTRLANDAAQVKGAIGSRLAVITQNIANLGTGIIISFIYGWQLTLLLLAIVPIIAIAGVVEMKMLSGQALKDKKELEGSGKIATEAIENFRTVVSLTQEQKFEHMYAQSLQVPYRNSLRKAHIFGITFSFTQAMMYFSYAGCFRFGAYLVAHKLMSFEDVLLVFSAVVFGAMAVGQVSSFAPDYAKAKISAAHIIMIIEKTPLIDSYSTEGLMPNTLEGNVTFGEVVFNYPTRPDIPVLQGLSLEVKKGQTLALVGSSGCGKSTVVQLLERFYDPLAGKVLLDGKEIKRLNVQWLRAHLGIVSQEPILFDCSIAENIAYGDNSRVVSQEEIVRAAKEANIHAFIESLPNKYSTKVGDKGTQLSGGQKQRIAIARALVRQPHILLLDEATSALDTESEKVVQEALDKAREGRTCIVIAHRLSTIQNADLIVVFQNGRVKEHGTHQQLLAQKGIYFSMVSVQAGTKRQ

| in vitro efflux, MDCK-MDR1 (in words) (MDR1 (P-gp)) | efflux ratio at 2 h, 10 μM (MDR1 (P-gp); [2]) | inhibition of the human Factor Xa enzyme (in words) (human Factor Xa) | IC50 (human Factor Xa) [nM] | Selectivity Assay C/Assay A (human Factor Xa) | IC50 (human androgen receptor; challenge with 125 pM (EC80) 6a-Fl Testosterone, mean +− standard deviation) [nM] | Selectivity Assay B/Assay A (human androgen receptor; ratio IC50 androgen receptor / IC50 IDO1) | in vivo efflux (in words) [1] | in vivo efflux (Assay F) [1] | efflux ratio at 2 h, 10 μM (MDR1 (P-gp); [3]) | SMILES |
| --- | --- | --- | --- | --- | --- | --- | --- | --- | --- | --- |
| high efflux |  | inhibit the human Factor Xa enzyme | 40 | 0.01 |  |  |  |  |  | Cc1cc(NC(=O)C(C)(C)NC(=O)c2ccc(Cl)s2)ccc1N1CCOCC1=O [WO2005/111029 Ex. 8] |
| high efflux |  | inhibit the human Factor Xa enzyme | 26 | 0.11 |  |  |  |  |  | CC(C)(NC(=O)c1ccc(Br)s1)C(=O)Nc1ccc(N2CCOCC2=O)c(Cl)c1 [WO2005/111029 Ex. 28] |
|  |  |  | > 10000 | >175 |  |  | substantial in vivo efflux | 3.3 (rat) | 1 | CC(C)(NC(=O)c1ccc(Cl)s1)C(=O)Nc1ccc2c(c1)CCN(C(=O)C(F)(F)F)CC2 [WO2007/003536 Ex. 4] |
|  |  |  | > 10000 | >164 |  |  | substantial in vivo efflux | 12.6 (rat) | 7.6 | CC(=O)N1CCc2ccc(NC(=O)C(C)(C)NC(=O)c3ccc(Cl)s3)cc2CC1 [WO2007/003536 Ex. 6] |
|  |  |  | > 10000 | >13 |  |  | substantial in vivo efflux | 6.2 (rat) | 1.8 | CC(C)(NC(=O)c1ccc(Cl)s1)C(=O)Nc1ncc2c(n1)CCN(Cc1ccccc1)CC2 [WO2007/003536 Ex. 159] |

More lines, now with the values behind:

| SMILES | in vitro efflux, MDCK-MDR1 (in words) (MDR1 (P-gp)) | efflux ratio at 2 h, 10 μM (MDR1 (P-gp); [2]) | inhibition of the human Factor Xa enzyme (in words) (human Factor Xa) | IC50 (human Factor Xa) [nM] | Selectivity Assay C/Assay A (human Factor Xa) | IC50 (human androgen receptor; challenge with 125 pM (EC80) 6a-Fl Testosterone, mean +− standard deviation) [nM] | Selectivity Assay B/Assay A (human androgen receptor; ratio IC50 androgen receptor / IC50 IDO1) | in vivo efflux (in words) [1] | in vivo efflux (Assay F) [1] | efflux ratio at 2 h, 10 μM (MDR1 (P-gp); [3]) |
| --- | --- | --- | --- | --- | --- | --- | --- | --- | --- | --- |
| C#Cc1ccc(C(=O)NC(C)(C(=O)Nc2ccc(N3CCOCC3=O)c(C)c2)C(F)(F)F)s1 (stereo not shown) [5-ethynyl-N-{1-trifluoromethyl-1-[3-methyl-4-(3-oxomorpholin-4-yl)phenylcarbamoyl]ethyl}thiophene-2-carboxamide] | high efflux ratio | 32 | inhibits the human Factor Xa enzyme | 48 | 0.08 |  |  |  |  |  |
| CC(C)(NC(=O)c1ccc(Cl)s1)C(=O)Nc1ccc(Cl)cc1 [Example 5, 2-[(5-chlorothiophen-2-yl)formamido]-N-(4-chlorophenyl)-2-methylpropanamide] |  |  |  | > 10000 | >57 | > 10000 | >58 |  |  |  |
| Cc1cc(NC(=O)C(C)(C)NC(=O)c2ccc(Cl)s2)ccc1C(=O)N1CCCC1 [WO2005/111014 Ex. 4] | high efflux | 5.7 | inhibits the human Factor Xa enzyme | 8 | 0.03 |  |  |  |  |  |

From US11691960B2, “2-[thiophen-2-yl)formamido]-N-(phenyl)-2-methylpropanamide derivatives and the use thereof as medicament” (Boehringer Ingelheim International GmbH, priority 2020, dated 2023)
